{
  "source": "patent US7514429B2",
  "about": "“Benzoxazinone-derived compounds, their preparation and use as medicaments” (ESTEVE Laboratorios Dr. Esteve S.A., priority 2002, dated 2009)",
  "key": {"[1]": {"biological_target": "T1, Neuropeptide Y2 (Rattus norvegicus, UniProt Q9ERC0)", "T1 construct": "their brains are rapidly removed and the hypoccampus is dissected; from tissue; host or cells: rat hippocampus membranes (male Wistar rats)", "T1 sequence (Q9ERC0 1-381)": "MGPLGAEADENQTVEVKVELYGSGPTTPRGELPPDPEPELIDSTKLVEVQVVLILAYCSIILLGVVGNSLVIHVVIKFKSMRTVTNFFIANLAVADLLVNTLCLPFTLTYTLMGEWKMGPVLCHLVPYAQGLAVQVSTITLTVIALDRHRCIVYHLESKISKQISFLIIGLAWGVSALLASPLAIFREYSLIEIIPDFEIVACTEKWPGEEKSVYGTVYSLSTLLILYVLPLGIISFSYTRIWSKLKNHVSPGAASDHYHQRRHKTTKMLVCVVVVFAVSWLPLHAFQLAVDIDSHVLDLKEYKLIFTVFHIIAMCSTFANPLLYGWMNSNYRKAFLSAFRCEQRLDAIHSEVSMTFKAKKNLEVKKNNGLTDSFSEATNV", "assay": "Binding to Neuropeptide Y2, Method (III), rat hypoccampus membranes", "conditions": "[125I]-PYY(3-36)", "description": "Binding to Neuropeptide Y2\nSaid literature description is herewith incorporated by reference and forms part of the disclosure.\nMale Wistar rats are sacrificed by decapitation, their brains are rapidly removed and the hypoccampus is dissected. Homogenization is performed in cold conditions in the buffer: 120 mM NaCl, 4.7 mM KCl, 2.2 mM CaCl2, 1.2 mM KH2PO4, 1.2 mM MgSO4, 25 mM NaHCO3, 5.5 mM glucose, pH 7.4, by means of a Ultra-Turrax homogenizer for 15 seconds at 13,500 rpm. The ratio between fresh tissue weight and buffer volume is of ten times. The membrane is centrifuged for 10 min at 48,000 g. The supernatant is discarded and the pellet is washed, resuspended and recentrifuged two more times. The final membrane resuspension is performed in the buffer: 120 mM NaCl, 4.7 mM KCl, 2.2 mM CaCl2, 1.2 mM KH2PO4, 1.2 mM MgSO4, 25 mM NaHCO3, 5.5 mM glucose, 0.1% BSA, 0.05% bacitracin, pH 7.4, at a 90 ml/g ratio of fresh issue. […] Incubation volume: 500 μl. […] The filters are cold-washed three times with three milliliters of the same buffer used in homogenization. […] Non-specific binding is determined in the presence of 1 μM of pNPY (Neuropeptide Y of porcine origin). The assays are performed in triplicate."}, "[2]": {"test_system": "rats", "assay": "Nocturnal feeding (food intake measurement)", "type": "in vivo, rat", "conditions": "vs. control group", "description": "Behavioural Models (Food Intake Measurements)\nIn both test, animals rats (Male W, 200-270 g, obtained from Harlan, S. A) were used. The rats are acclimatized to the animal facility for at least 5 days before being subjected to any experimental procedure. During this period, animals were housed in groups of five in translucid cages and provided with food and water ad libitum. At least 24 hours before the tests, animals are adapted to single-housing conditions.\nFood intake is measured in home cages in order to minimize non-specific stress effects on food intake resulting from changes in housing conditions. Food and water is available ad libitum. Immediately before lights turn off, rats are weighed, randomized and dosed (orally or intraperitoneally), either with vehicle or selected benzoxacine-compounds of general formula (I). Thereafter, rats are returned to home cages and food left on top covers is measured. Remaining food and animal's weight is measured next morning.\nThe above mentioned methods are described in Ants Kask et al., Europan Journal of Pharmacology 414 (2001) 215-224 and Turnbull et al., Diabetes, Vol. 51, August 2002, which are hereby incorporated by reference and form part of the disclosure."}, "[3]": {"biological_target": "T2, rat Y5 receptor (Rattus norvegicus, UniProt Q63634)", "T2 construct": "expressed in transfected cells; host or cells: C6 cells", "T2 sequence (Q63634 1-445)": "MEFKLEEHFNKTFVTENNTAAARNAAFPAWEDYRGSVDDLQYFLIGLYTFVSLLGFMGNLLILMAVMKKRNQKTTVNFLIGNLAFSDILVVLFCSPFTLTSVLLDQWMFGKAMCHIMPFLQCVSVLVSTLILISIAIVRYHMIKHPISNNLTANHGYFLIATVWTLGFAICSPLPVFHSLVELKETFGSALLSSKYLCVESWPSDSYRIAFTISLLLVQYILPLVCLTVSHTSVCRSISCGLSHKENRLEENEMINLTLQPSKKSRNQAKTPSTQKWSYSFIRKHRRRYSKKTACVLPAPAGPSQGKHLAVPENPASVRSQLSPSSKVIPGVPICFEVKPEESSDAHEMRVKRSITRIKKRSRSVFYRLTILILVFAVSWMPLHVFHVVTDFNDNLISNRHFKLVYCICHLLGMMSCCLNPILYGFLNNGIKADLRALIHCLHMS", "assay": "Neuropeptide Y5 receptor binding, Method (II), C6 cells transfected with the rat Y5 receptor", "conditions": "[125I]-PYY, Y5 rat recombinant receptor, cell C6", "description": "Neuropeptide Y5 Receptor Binding Studies:\nThe methods used for membrane preparation and binding are similar to those described by Y. Hu, B. T. Bloomquist et al. in Y. Hu, B. T. Bloomquist et al., The Journal of Biological Chemistry, 1996, 271, 26315-26319 with modifications. Said literature description is herewith incorporated by reference and forms part of the disclosure. Cells C6 were transfected with the rat Y5 receptor. The cells were grown under standard culture conditions in 150 cm^2 dishes and they were harvested using a rubber scraper and 10 ml PBS. The cells from five dishes were collected and centrifuged 2.500 g for 5 min (4° C). The pellet was washed by resuspending in 3 ml buffer (Tris-HCl 10 mM, pH 7.4), homogenized using a Potter S homogenizer, 10 strokes at 600 rpm and centrifuged 48.000 g for 20 min (4° C.). The pellet was resuspended in 8 ml membrane buffer (Tris-HCl 25 mM, NaCl 120 mM, KCl 5 mM, KH2PO4 1.2 mM, CaCl2 2.5 mM, MgSO4 1.2 mM, BSA 0.15 mg/ml, Bacitracine 0.5 mg/ml, pH 7.4) and rehomogenized using the Potter S, 10 strokes at 600 rpm. The protein concentration in the incubation was 40 μg/ml. The radioligand was [^125I]-PYY (100 pM) in a total incubation volume of 200 μl. Following incubation at 25° C. for 2 h, the reaction was stopped by addition of 5 ml ice-cold buffer (Tris-HCl 25 mM, NaCl 120 mM, KCl 5 mM, KH2PO4 1.2 mM, CaCl2 2.5 mM, MgSO4 1.2 mM, pH 7.4) and rapid filtration in a Harvester Brandell Cell using filters (Schleicher & Schuell G F 3362) pretreated for two hours with 0.5% polyethyleneimine. Filters were washed one time with 5 ml ice-cold buffer. The filters were placed into plastic scintilation vials and 5 ml scintilation cocktail Ecoscint H were added. The quantity of radioactivity present was determined in a Wallac Winspectral 1414 counter. Non specific binding was determined in the presence of 1 μM de pNPY. All binding assays were done in triplicate."}},
  "note": "Structures can show the parent of a compound that is named as a salt.",
  "data": [
    {"smiles": "Cc1cccc2c1N(C1CCN(CC(=O)Nc3ccc4c(c3)-c3ccccc3C4=O)CC1)C(=O)OC2", "note": "(as salt: HCl) [Example 35, 2-[4-(8-Methyl-2-oxo-4H-benzo[d][1,3]oxazin-1-yl)-piperidin-1-yl]-N-(9-oxo-9H-fluoren-3-yl)-acetamide hydrochloride]", "values": [
      {"measurement": "melting point", "result": "233 to 236", "unit": "°C"}
    ]},
    {"smiles": "O=C(CN1CCC(N2C(=O)OCc3ccccc32)CC1)Nc1ccc2c(c1)-c1ccccc1C2=O", "note": "[Example 3, 2-[4-(2-oxo-4H-benzo[d][1,3]oxazin-1-yl)-piperidin-1-yl]-N-(9-oxo-9H-fluoren-3-yl)-acetamide hydrochloride]", "values": [
      {"measurement": "Ki", "setting": "[1]", "result": "> 1000", "unit": "nM"}
    ]},
    {"smiles": "CCn1c2ccccc2c2cc(NC(=O)CN3CCC(N4C(=O)OCc5ccccc54)CC3)ccc21", "note": "[Example 18, N-(9-Ethyl-9H-carbazol-3-yl)-2-[4-(2-oxo-4H-benzo[d][1,3]oxazin-1-yl)-piperidin-1-yl]-acetamide hydrochloride]", "values": [
      {"measurement": "Effect: body weight of treated animals", "setting": "[2]; 40 mg/kg i.p. administration", "result": "reduces body weight of"},
      {"measurement": "Effect: food intake", "setting": "[2]; 40 mg/kg i.p. administration", "result": "Decreases food intake and"}
    ]},
    {"smiles": "Cc1ccc2c(c1)COC(=O)N2C1CCN(CC(=O)Nc2ccc3c(c2)-c2ccccc2C3=O)CC1", "note": "[Example 20, 2-[4-(6-methyl-2-oxo-4H-benzo[d][1,3]oxazin-1-yl)-piperidin-1-yl]-N-(9-oxo-9H-fluoren-3-yl)-acetamide hydrochloride]", "values": [
      {"measurement": "Ki", "setting": "[1]", "result": "> 1000", "unit": "nM"},
      {"measurement": "Effect: body weight of treated animals", "setting": "[2]; 40 mg/kg i.p. administration", "result": "reduces body weight of"},
      {"measurement": "Effect: food intake", "setting": "[2]; 40 mg/kg i.p. administration", "result": "Decreases food intake and"}
    ]},
    {"smiles": "Cc1cccc2c1N(C1CCN(CC(=O)Nc3ccc4c(c3)-c3ccccc3C4=O)CC1)C(=O)OC2", "note": "[Example 35, 2-[4-(8-Methyl-2-oxo-4H-benzo[d][1,3]oxazin-1-yl)-piperidin-1-yl]-N-(9-oxo-9H-fluoren-3-yl)-acetamide hydrochloride]", "values": [
      {"measurement": "Effect: body weight of treated animals", "setting": "[2]; 20 mg/kg i.p. administration", "result": "reduces body weight of"},
      {"measurement": "Effect: food intake", "setting": "[2]; 20 mg/kg i.p. administration", "result": "Decreases food intake and"}
    ]},
    {"smiles": "COc1cccc2c1COC(=O)N2C1CCN(CC(=O)Nc2ccc3sc4ccccc4c3c2)CC1", "note": "[Example 107, N-Dibenzothiophene-2-yl-2-[4-(5-methoxy-2-oxo-4H-benzo[d][1,3]oxazin-1-yl)-piperidin-1-yl]-acetamide]", "values": [
      {"measurement": "IC50", "setting": "[3]", "result": 23.5, "unit": "nM"}
    ]},
    {"smiles": "Cc1nc2cc(NC(=O)CN3CCC(N4C(=O)OCc5cc(F)ccc54)CC3)ccc2s1", "note": "[Example 114, 2-[4-(6-Fluoro-2-oxo-4H-benzo[d][1,3]oxazin-1-yl)-piperidin-1-yl]-N-(2-methyl-benzothiazole-5-yl)-acetamide]", "values": [
      {"measurement": "IC50", "setting": "[3]", "result": 40.7, "unit": "nM"}
    ]},
    {"smiles": "COc1ccc2c(c1)COC(=O)N2C1CCN(CC(=O)Nc2ccc3sc(C)nc3c2)CC1", "note": "[Example 116, 2-[4-(6-Methoxy-2-oxo-4H-benzo[d][1,3]oxazin-1-yl)-piperidin-1-yl]-N-(2-methyl-benzothiazole-5-yl)-acetamide]", "values": [
      {"measurement": "IC50", "setting": "[3]", "result": 106, "unit": "nM"}
    ]}
  ]
}
